What was measured:
Test in all cases: Histone peptide microarray
Format in all cases: binding, human
Details in all cases: sheet "Array Heatmap"; GST-tagged reader; histone peptide array, total n = 4
AIRE (PP) = system: AIRE (PP)
Summary of the method: (§1)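 GST-PHD reader, 0.5 μM, probed on 293-peptide histone array (single/combinatorial PTMs); optimized array protocol; signal = mean ± SD, n = 4.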

BAZ2B = system: BAZ2B
Summary of the method: as §1

BPTF (PB) = system: BPTF (PB)
Summary of the method: as §1

CHD4 (PPCC) = system: CHD4 (PPCC)
Summary of the method: as §1

CHD5 (PCC) = system: CHD5 (PCC)
Summary of the method: as §1

CHD5 (PPCC) = system: CHD5 (PPCC)
Summary of the method: as §1

DIDO1 = system: DIDO1
Summary of the method: as §1

DPF2 (PPC2W2) = system: DPF2 (PPC2W2)
Summary of the method: as §1

ING1 = system: ING1
Summary of the method: as §1

ING2 = system: ING2
Summary of the method: as §1

ING3 = system: ING3
Summary of the method: as §1

ING4 = system: ING4
Summary of the method: as §1

ING5 = system: ING5
Summary of the method: as §1

KDM4C (TTP) = system: KDM4C (TTP)
Summary of the method: as §1

KDM5A (1) = system: KDM5A (1)
Summary of the method: as §1

KDM5A (3) = system: KDM5A (3)
Summary of the method: as §1

KDM5B (1) = system: KDM5B (1)
Summary of the method: as §1

KDM5B (3) = system: KDM5B (3)
Summary of the method: as §1

KDM7A = system: KDM7A
Summary of the method: as §1

MLL5 = system: MLL5
Summary of the method: as §1

MORC3 (CW) = system: MORC3 (CW)
Summary of the method: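 Each reader, produced as a GST fusion and purified, was tested at 0.5 μM on synthetic histone peptides (293 in total) carrying single or combinatorial marks. Intensities averaged over four replicates.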

PHF13 = system: PHF13
Summary of the method: as §1

PHF21A = system: PHF21A
Summary of the method: as §1

PHF23 = system: PHF23
Summary of the method: as §1

PHF2 = system: PHF2
Summary of the method: as §1

PHF8 = system: PHF8
Summary of the method: as §1

PHRF1 (RP) = system: PHRF1 (RP)
Summary of the method: as §1

RAG2 = system: RAG2
Summary of the method: as §1

SP140L = system: SP140L
Summary of the method: as §1

TAF3 = system: TAF3
Summary of the method: as §1

TRIM66 (PB) = system: TRIM66 (PB)
Summary of the method: as §1

Substance	Array Heatmap signal, AIRE (PP) (AIRE (PP))	Array Heatmap signal, BAZ2B (BAZ2B)	Array Heatmap signal, BPTF (PB) (BPTF (PB))	Array Heatmap signal, CHD4 (PPCC) (CHD4 (PPCC))	Array Heatmap signal, CHD5 (PCC) (CHD5 (PCC))	Array Heatmap signal, CHD5 (PPCC) (CHD5 (PPCC))	Array Heatmap signal, DIDO1 (DIDO1)	Array Heatmap signal, DPF2 (PPC2W2) (DPF2 (PPC2W2))	Array Heatmap signal, ING1 (ING1)	Array Heatmap signal, ING2 (ING2)	Array Heatmap signal, ING3 (ING3)	Array Heatmap signal, ING4 (ING4)	Array Heatmap signal, ING5 (ING5)	Array Heatmap signal, KDM4C (TTP) (KDM4C (TTP))	Array Heatmap signal, KDM5A (1) (KDM5A (1))	Array Heatmap signal, KDM5A (3) (KDM5A (3))	Array Heatmap signal, KDM5B (1) (KDM5B (1))	Array Heatmap signal, KDM5B (3) (KDM5B (3))	Array Heatmap signal, KDM7A (KDM7A)	Array Heatmap signal, MLL5 (MLL5)	other results
H3R17me1: H3 1-20 [Peptide H3R17me1]	0.4567	0.4823	0.345	0.598	0.834	0.5588	0.721	0.7016	0.5598	0.6036	0.4855	0.4637	0.3567	0.4745	0.4728	0.5587	0.6928	0.5296	0.3476	0.5956	Array Heatmap signal, MORC3 (CW) (MORC3 (CW)): 0.4904; Array Heatmap signal, PHF13 (PHF13): 0.6124; Array Heatmap signal, PHF21A (PHF21A): 0.4738; Array Heatmap signal, PHF23 (PHF23): 0.5635; Array Heatmap signal, PHF2 (PHF2): 0.5204; Array Heatmap signal, PHF8 (PHF8): 0.3543; Array Heatmap signal, PHRF1 (RP) (PHRF1 (RP)): 0.8251; Array Heatmap signal, RAG2 (RAG2): 0.268; Array Heatmap signal, SP140L (SP140L): 0.359; Array Heatmap signal, TAF3 (TAF3): 0.2696; Array Heatmap signal, TRIM66 (PB) (TRIM66 (PB)): 0.643
H3R17me2a + K18ac (1-25): H3 1-25	0.3677	0.3556	0.2769	0.4858	0.615	0.4057	0.5785	0.608	0.4981	0.5776	0.4176	0.3381	0.251	0.324	0.3724	0.5578	0.6531	0.4124	0.2298	0.4712	Array Heatmap signal, MORC3 (CW) (MORC3 (CW)): 0.4929; Array Heatmap signal, PHF13 (PHF13): 0.4521; Array Heatmap signal, PHF21A (PHF21A): 0.3605; Array Heatmap signal, PHF23 (PHF23): 0.4823; Array Heatmap signal, PHF2 (PHF2): 0.4874; Array Heatmap signal, PHF8 (PHF8): 0.2767; Array Heatmap signal, PHRF1 (RP) (PHRF1 (RP)): 0.7492; Array Heatmap signal, RAG2 (RAG2): 0.2079; Array Heatmap signal, SP140L (SP140L): 0.2916; Array Heatmap signal, TAF3 (TAF3): 0.2141; Array Heatmap signal, TRIM66 (PB) (TRIM66 (PB)): 0.6221
H3R17me2a: H3 1-20 [Peptide H3R17me2a]	0.3243	0.3052	0.2765	0.4461	0.5481	0.3709	0.6933	0.5665	0.5124	0.6139	0.3691	0.3252	0.2247	0.2915	0.3023	0.5532	0.4837	0.4098	0.2428	0.5506	Array Heatmap signal, MORC3 (CW) (MORC3 (CW)): 0.4952; Array Heatmap signal, PHF13 (PHF13): 0.4423; Array Heatmap signal, PHF21A (PHF21A): 0.2924; Array Heatmap signal, PHF23 (PHF23): 0.499; Array Heatmap signal, PHF2 (PHF2): 0.6186; Array Heatmap signal, PHF8 (PHF8): 0.337; Array Heatmap signal, PHRF1 (RP) (PHRF1 (RP)): 0.5177; Array Heatmap signal, RAG2 (RAG2): 0.3136; Array Heatmap signal, SP140L (SP140L): 0.2774; Array Heatmap signal, TAF3 (TAF3): 0.2956; Array Heatmap signal, TRIM66 (PB) (TRIM66 (PB)): 0.5152
H3R17me2s: H3 1-20 [Peptide H3R17me2s]	0.4113	0.4477	0.3293	0.5449	0.7264	0.5108	0.6492	0.6998	0.5076	0.6161	0.447	0.4307	0.3275	0.4268	0.4442	0.5756	0.601	0.5222	0.306	0.5344	Array Heatmap signal, MORC3 (CW) (MORC3 (CW)): 0.5429; Array Heatmap signal, PHF13 (PHF13): 0.5969; Array Heatmap signal, PHF21A (PHF21A): 0.4345; Array Heatmap signal, PHF23 (PHF23): 0.5417; Array Heatmap signal, PHF2 (PHF2): 0.5815; Array Heatmap signal, PHF8 (PHF8): 0.3293; Array Heatmap signal, PHRF1 (RP) (PHRF1 (RP)): 0.8026; Array Heatmap signal, RAG2 (RAG2): 0.2456; Array Heatmap signal, SP140L (SP140L): 0.3428; Array Heatmap signal, TAF3 (TAF3): 0.274; Array Heatmap signal, TRIM66 (PB) (TRIM66 (PB)): 0.6637

Reference: publication PMC6979384, “Characterization of the plant homeodomain (PHD) reader family for their histone tail interactions” (Epigenetics & Chromatin, 2020)
